“Also recorded” adds a separate entry of the source.
What was measured:
[1] = tested on: NMDAR-mediated currents in dSPNs; assay: NMDAR-mediated uEPSCs and EPSCs in dSPNs, whole-cell voltage clamp; assay type: cell-based, mice; conditions: for amplitude of NMDAR-mediated uEPSCs: muscarine and VU10010 5 μM in the presence of SKF81297, glutamate uncaging
Method: For whole-cell voltage clamp recordings, patch pipettes were loaded with internal recording solution containing (mM): 120 CsMeSO3, 15 CsCl, 8 NaCl, 10 HEPES, 0.2 EGTA, 10 tetraethylammonium Chloride (TEA-Cl), 5 QX-314, 2 Mg-ATP, 0.3 Na-GTP; pH was adjusted to 7.25 with CsOH and osmolarity to ˜305 mOsm l^−1. All the recordings were made using a MultiClamp 700 A amplifier, and signals were filtered at 2 kHz and digitized at 10 kHz. Data were excluded when the series resistance changed >20% over the time course of the experiment. For perforated patch recordings, the internal recording solution comprised (in mM): 125 KMeSO4, 14 KCl, 2 MgCl2, 0.2 EGTA, 10 HEPES; pH was adjusted to 7.25 with NaOH and osmolarity to ˜280 mOsm l^−1. Amphotericin B was used to achieve electrical access through the perforated-patch method (Shen et al., 2007; 2008; herein incorporated by reference in their entireties). Capacitance current was continuously monitored during perforation by applying a 5-10 mV pulse from a holding potential of −70 mV. The amplifier bridge circuit was adjusted to compensate for series resistance and continuously monitored during recordings. Electrode capacitance was also compensated. Data were excluded when the input resistance (Ri) changed >20% over the time course of the experiment.
Glutamate uncaging was achieved using a Verdi/Mira (Coherent Laser Group, Santa Clara, Calif.) (Plotkin et al., 2014). 5 mM MNI-glutamate was superfused over the slice at 0.4 ml/hr using a syring pump and multi-barreled perfusion manifold (Cell MicroControls, Norfolk, Va.). The perfusion solution was (in mM): 124 NaCl, 3 KCl, 2 CaCl2, 1 NaH2PO4, 26 HEPES and 16.66 glucose, and also contained (in μM): 3 muscarine, 10 serine, 10 NBQX and 10 gabazine, plus or minus: 3 SKF81297 and/or 5 VU10010). Glutamate was uncaged adjacent to individual spines using 1 ms pulses of 720-725 nm light typically 10-20 mW in power at the sample plane. Photolysis power was tuned via a third Pockels cell modulator (Con Optics, Danbury, Conn.) to achieve uEPSCs≤5 pA. uEPSC amplitudes were measured from averaged (3-5 repetitions) traces. All uncaging experiments were performed in 0 mM Mg^2+-containing solutions.
To determine the situation in dSPNs, the effect of muscarine and VU10010 on NMDAR-mediated EPSCs evoked by uncaging glutamate on spine heads (uEPSCs) was examined in the presence of SKF81297.

[2] = tested on: dSPN glutamatergic synapses; assay: Spike-timing-dependent LTD induction (post-pre pairing) in dSPNs, ex vivo corticostriatal slices, perforated-patch or whole-cell recording; assay type: cell-based, mice
Text: Male C57Bl/6 and FVB mice expressing tdTomato or eGFP under control of either the Drd1 or Drd2 receptor regulatory elements were used. All the mice used for the study were hemizygous for these transgenes. For some experiments, D1-tdTomato BAC mice were crossed with a transgenic line expressing Cre recombinase under control of the ChAT promoter. All mice were 8-10 weeks of age before stereotaxic surgery. Animal use procedures were reviewed and approved by the Northwestern Institutional Animal Care and Use Committee.
Slices were then transferred to a holding chamber containing aCSF. After an incubation period at 34° C. for 30 min, the slices were then kept in the holding chamber at the room temperature for another 30 min before use.
Individual slices were transferred to a recording chamber and were continuously perfused (2-3 ml min^−1) with aCSF for the duration of the experiment. Experiments were performed in the dorsolateral striatum at elevated temperature (30-31° C.).
All the recordings were made using a MultiClamp 700 A amplifier, and signals were filtered at 2 kHz and digitized at 10 kHz. Data were excluded when the series resistance changed >20% over the time course of the experiment. […] Capacitance current was continuously monitored during perforation by applying a 5-10 mV pulse from a holding potential of −70 mV. The amplifier bridge circuit was adjusted to compensate for series resistance and continuously monitored during recordings. Electrode capacitance was also compensated. Data were excluded when the input resistance (Ri) changed >20% over the time course of the experiment.
Data analysis was conducted with Igor Pro 6 (Wavemetrics, Lake Oswego, Oreg.) and Clampfit 9 (Molecular Devices). EPSP amplitude was calculated from 50-60 sweeps immediately before the start of induction and 20-30 min after the end of induction. The change in EPSP amplitude was calculated by averaging EPSP values after the induction and normalized to the average baseline EPSP amplitude. Compiled data were expressed as mean±s.e.m. Statistical tests were performed using Excel (Microsoft, Redmond, Wash.) and SigmaStat (Systat, San Jose, Calif.). Non-parametric Mann-Whitney or Wilcoxon tests were used to assess the experiment results, using a probability threshold of 0.05.
To determine if M4Rs were modulating synaptic plasticity, a spike-timing-dependent plasticity (STDP) paradigm was used. […] Once identified, neurons were monitored and controlled with perforated-patch recording to preserve intracellular signaling mechanisms and to allow stable, long-term monitoring of synaptic strength (FIG. 1A).
Synaptic plasticity was induced by pairing local stimulation of glutamatergic afferent fibers with postsynaptic spikes evoked by short bursts of intracellular current injection that were repeated at 5 Hz (FIGS. 1B, 4A).

## Cc1cc(C)c2c(N)c(C(=O)NCc3ccc(Cl)cc3)sc2n1 [VU10010]
[1]; muscarine 3 μM + VU10010 5 μM, local electrical stimulation
  muscarine modulation of NMDAR-mediated EPSCs: augmented
[1]
  amplitude of NMDAR-mediated uEPSCs: significantly reduced the amplitude
[1]; listed as VU 10010
  amplitude of NMDAR-mediated uEPSCs: suppressed NMDAR-mediated uEPSC currents
[2]; VU10010 5 μM, no D1R antagonist, 20 repetitions of pairing
  LTD induction in dSPNs (EPSP amplitude): did not lead to LTD induction
[2]; VU10010 5 μM, no D1R antagonist, 60 repetitions of pairing
  LTD induction in dSPNs (EPSP amplitude): LTD induction was robust; also recorded: LTD was induced
[2]; physostigmine 10 μM co-applied with VU10010 5 μM, 20 repetitions
  LTD induction in dSPNs (EPSP amplitude): LTD was induced
